# Reference: ChEMBL document CHEMBL3885881, “DrugMatrix”
# Species: Rattus norvegicus
# Assay: DrugMatrix - Regimen: Daily Repeat
# Format: toxicity, organism-based, Sprague-Dawley
# Set-up: regimen Daily Repeat, gender Male, age 6-8 weeks
# Conditions: in vivo, po, route oral GAVAGE, […]; for ABSOLUTE BASOPHIL / ABSOLUTE EOSINOPHIL / ABSOLUTE LYMPHOCYTE / ABSOLUTE MONOCYTE / ABSOLUTE SEGMENTED NEUTROPHIL / BASOPHIL / EOSINOPHIL / ERYTHROCYTE COUNT / HEMATOCRIT / HEMOGLOBIN / LEUKOCYTE COUNT / LYMPHOCYTE / MEAN CORPUSCULAR HEMOGLOBIN / MEAN CORPUSCULAR HEMOGLOBIN CONCENTRATION / MEAN CORPUSCULAR VOLUME / MONOCYTE / NEUTROPHIL / NUCLEATED RED BLOOD CELLS / PLATELET COUNT: tissue Blood; for ALANINE AMINOTRANSFERASE / ALKALINE PHOSPHATASE / ASPARTATE AMINOTRANSFERASE / BLOOD UREA NITROGEN / CARBON DIOXIDE / CHLORIDE / CHOLESTEROL / CREATINE PHOSPHOKINASE / CREATININE / GLUCOSE / LACTATE DEHYDROGENASE / LIPASE / PHOSPHORUS / POTASSIUM / SODIUM / TOTAL BILIRUBIN / TOTAL PROTEIN / URIC ACID: tissue Plasma
# [1] = 0 mg/kg, 72 h, dose level Control, time 3 day
# [2] = 0 mg/kg, 120 h, dose level Control, time 5 day
# [3] = 22 mg/kg, 72 h, dose level High, time 3 day
structure (smiles),measurement,setting,value
OCCN1CCN(CCCN2c3ccccc3Sc3ccc(C(F)(F)F)cc32)CC1 [FLUPHENAZINE],ABSOLUTE BASOPHIL,[1],0 CELLS/uL
same,ABSOLUTE EOSINOPHIL,[1],0 CELLS/uL
same,ABSOLUTE LYMPHOCYTE,[1],6275.67 CELLS/uL
same,ABSOLUTE MONOCYTE,[1],40.67 CELLS/uL
same,ABSOLUTE SEGMENTED NEUTROPHIL,[1],633.67 CELLS/uL
same,BASOPHIL,[1],0%
same,EOSINOPHIL,[1],0%
same,ERYTHROCYTE COUNT,[1],5.2 x10E6/uL
same,HEMATOCRIT,[1],32.78%
same,HEMOGLOBIN,[1],12.98 G/DL
same,LEUKOCYTE COUNT,[1],6.95 x10E3/uL
same,LYMPHOCYTE,[1],90.17%
same,MEAN CORPUSCULAR HEMOGLOBIN,[1],24.97 pg
same,MEAN CORPUSCULAR HEMOGLOBIN CONCENTRATION,[1],39.62 G/DL
same,MEAN CORPUSCULAR VOLUME,[1],63.03 fL
same,MONOCYTE,[1],0.67%
same,NEUTROPHIL,[1],9.17%
same,NUCLEATED RED BLOOD CELLS,[1],0 /100WBC
same,PLATELET COUNT,[1],1082.83 x10E3/uL
same,ALANINE AMINOTRANSFERASE,[1],69.67 u/L
same,ALKALINE PHOSPHATASE,[1],430.5 u/L
same,ASPARTATE AMINOTRANSFERASE,[1],90.83 u/L
same,BLOOD UREA NITROGEN,[1],13 mg/dL
same,CARBON DIOXIDE,[1],33 mmol/L
same,CHLORIDE,[1],99.17 MEQ/L
same,CHOLESTEROL,[1],70.5 mg/dL
same,CREATINE PHOSPHOKINASE,[1],253.33 u/L
same,CREATININE,[1],0.13 mg/dL
same,GLUCOSE,[1],157.17 mg/dL
same,LACTATE DEHYDROGENASE,[1],85 u/L
same,LIPASE,[1],10 u/L
same,PHOSPHORUS,[1],10.2 mg/dL
same,POTASSIUM,[1],5.78 MEQ/L
same,SODIUM,[1],144.12 MEQ/L
same,TOTAL BILIRUBIN,[1],0.2 mg/dL
same,TOTAL PROTEIN,[1],5.8 G/DL
same,URIC ACID,[1],0.8 mg/dL
same,ABSOLUTE BASOPHIL,[2],0 CELLS/uL
same,ABSOLUTE EOSINOPHIL,[2],0 CELLS/uL
same,ABSOLUTE LYMPHOCYTE,[2],10431 CELLS/uL
same,ABSOLUTE MONOCYTE,[2],90.5 CELLS/uL
same,ABSOLUTE SEGMENTED NEUTROPHIL,[2],1111.83 CELLS/uL
same,BASOPHIL,[2],0%
same,EOSINOPHIL,[2],0%
same,ERYTHROCYTE COUNT,[2],5.51 x10E6/uL
same,HEMATOCRIT,[2],34.67%
same,HEMOGLOBIN,[2],13.5 G/DL
same,LEUKOCYTE COUNT,[2],11.63 x10E3/uL
same,LYMPHOCYTE,[2],89.67%
same,MEAN CORPUSCULAR HEMOGLOBIN,[2],24.5 pg
same,MEAN CORPUSCULAR HEMOGLOBIN CONCENTRATION,[2],38.95 G/DL
same,MEAN CORPUSCULAR VOLUME,[2],62.87 fL
same,MONOCYTE,[2],0.67%
same,NEUTROPHIL,[2],9.67%
same,NUCLEATED RED BLOOD CELLS,[2],0 /100WBC
same,PLATELET COUNT,[2],1052.67 x10E3/uL
same,ALANINE AMINOTRANSFERASE,[2],54.67 u/L
same,ALKALINE PHOSPHATASE,[2],359.83 u/L
same,ASPARTATE AMINOTRANSFERASE,[2],83 u/L
same,BLOOD UREA NITROGEN,[2],13.5 mg/dL
same,CARBON DIOXIDE,[2],27.17 mmol/L
same,CHLORIDE,[2],98.5 MEQ/L
same,CHOLESTEROL,[2],66.83 mg/dL
same,CREATINE PHOSPHOKINASE,[2],256.17 u/L
same,CREATININE,[2],0.19 mg/dL
same,GLUCOSE,[2],171.33 mg/dL
same,LACTATE DEHYDROGENASE,[2],91.5 u/L
same,LIPASE,[2],10.5 u/L
same,PHOSPHORUS,[2],8.72 mg/dL
same,POTASSIUM,[2],5.34 MEQ/L
same,SODIUM,[2],142.53 MEQ/L
same,TOTAL BILIRUBIN,[2],0.2 mg/dL
same,TOTAL PROTEIN,[2],6.05 G/DL
same,URIC ACID,[2],0.6 mg/dL
same,ABSOLUTE BASOPHIL,[3],0 CELLS/uL
same,ABSOLUTE EOSINOPHIL,[3],0 CELLS/uL
same,ABSOLUTE LYMPHOCYTE,[3],7819 CELLS/uL
same,ABSOLUTE MONOCYTE,[3],96.67 CELLS/uL
same,ABSOLUTE SEGMENTED NEUTROPHIL,[3],384.33 CELLS/uL
same,BASOPHIL,[3],0%
same,EOSINOPHIL,[3],0%
same,ERYTHROCYTE COUNT,[3],6.13 x10E6/uL
same,HEMATOCRIT,[3],39.3%
same,HEMOGLOBIN,[3],15.37 G/DL
same,LEUKOCYTE COUNT,[3],8.3 x10E3/uL
same,LYMPHOCYTE,[3],94.67%
same,MEAN CORPUSCULAR HEMOGLOBIN,[3],25.03 pg
same,MEAN CORPUSCULAR HEMOGLOBIN CONCENTRATION,[3],39.07 G/DL
same,MEAN CORPUSCULAR VOLUME,[3],64.13 fL
same,MONOCYTE,[3],1%
same,NEUTROPHIL,[3],4.33%
same,NUCLEATED RED BLOOD CELLS,[3],0 /100WBC
same,PLATELET COUNT,[3],1324.33 x10E3/uL
same,ALANINE AMINOTRANSFERASE,[3],35.33 u/L
same,ALKALINE PHOSPHATASE,[3],274 u/L
same,ASPARTATE AMINOTRANSFERASE,[3],77 u/L
same,BLOOD UREA NITROGEN,[3],16.33 mg/dL
same,CARBON DIOXIDE,[3],34 mmol/L
same,CHLORIDE,[3],108.33 MEQ/L
same,CHOLESTEROL,[3],92.67 mg/dL
same,CREATINE PHOSPHOKINASE,[3],280 u/L
same,CREATININE,[3],0.13 mg/dL
same,GLUCOSE,[3],154 mg/dL
same,LACTATE DEHYDROGENASE,[3],79.33 u/L
same,LIPASE,[3],9.67 u/L
same,PHOSPHORUS,[3],9.4 mg/dL
same,POTASSIUM,[3],5.57 MEQ/L
same,SODIUM,[3],156.07 MEQ/L
same,TOTAL BILIRUBIN,[3],0.17 mg/dL
same,TOTAL PROTEIN,[3],6.13 G/DL
same,URIC ACID,[3],0.53 mg/dL
